Legend:
MT4 [1] = test: Concentration required to protect MT-4 cells against the cytopathogenicity of HIV-1 IIIB; format: functional, cell-based; conditions: Homo sapiens
MT4 [2] = test: Concentration required to inhibit the proliferation of uninfected MT-4 cells; format: functional; conditions: Homo sapiens

SMILES	EC50 (MT4 [1])	CC50 (MT4 [2])
Cc1[nH]c(C(=O)NCCCN=C(N)N)cc2c3ccccc3nc1-2	≥ 50 µM	> 100 µM
NCCCNC(=O)c1cc2c3ccccc3nc-2c[nH]1	> 1000 µM	> 1000 µM
N=C(N)NCCCNC(=O)c1cc2c3ccccc3nc-2c[nH]1	≥ 50 µM	> 1000 µM
Cc1[nH]c(C(=O)NCCCN)cc2c3ccccc3nc1-2	> 100 µM	> 100 µM

— ChEMBL document CHEMBL1146788, “Synthesis and biological evaluation of novel beta-carboline derivatives as Tat-TAR interaction inhibitors” (Bioorg Med Chem Lett, 2004)
